Measured values taken from patent publication US20090215713A1, “Use of atp for the manufacture of a medicament for the prevention and treatment of oxidative stress and related conditions” (priority 2004, published 2009).
“Also recorded” adds a separate entry of the source.

Columns and labels:
[1] = ATP infusions in patients with chronic fatigue syndrome (double-blind); assay type: in vivo, human
Method: Patients with different diseases received infusions of 10-75 μg/kg·min over 8-24 h, at intervals of 1-4 weeks in different randomized clinical trials. In all cases, the first. infusion was given under clinical supervision, subsequent infusions were given in the setting of private homes. Preliminary results in small numbers of patients with persistent rheumatoid arthritis, chronic fatigue syndrome, and cancer in the pre-terminal stage, and lung cancer during curative radiotherapy are given below.
In a double-blind design, 8 out of 9 patients with chronic fatigue syndrome who had been treated with ATP (8 infusions of 24 h), spontaneously reported the following unexpected beneficial effects of ATP infusion: • less pain on the day after the infusion • feeling better during the 8-week infusion period than before or afterwards • more physical energy on the day after the infusion • felt better during the complete infusion period: less pain, better performance status, happier, mentally stronger, less tired, sleeping better • fewer ulcers during the infusion period • feeling less weak/feeble on the day after the infusion, feeling muscles “in a positive sense” In 5 out of 9 patients, these effects were already noted on the day after the first ATP infusion. […] In the placebo group, not even one out of 9 patients spontaneously reported any of such improvements.

[2] = cited from earlier work
GSH and GSH/GSSG ratios = assay: Intracellular GSH and GSH/GSSG ratios in whole blood after γ-irradiation; assay type: cell-based; details: 300 μM ATP, 16 Gy
Method: Samples with 5 ml of blood were pre-incubated with 300 μM ATP or medium (control) for 30 minutes. Then, at t=0, each blood sample was irradiated with γ-radiation at a dose of 16 Gy. Preceding irradiation (baseline) and at 1 h, 3 h and 5 h post-irradiation, a sample was taken for analysis of intracellular GSH and GSH/GSSG ratios according to standard methods, as well as for cytokine analysis by the ELISA method.

IL-6 = assay: LPS+PHA-induced IL-6 secretion in whole blood under oxidative stress (H2O2); assay type: cell-based, human; details: absence or presence of H2O2 (1 and 10 mM)
Method: FIG. 12 Effect of ATP on LPS+PHA-induced IL-6 secretion in whole blood from healthy subjects under conditions of oxidative stress. Two concentrations of H2O2 (1 and 10 mM) were added to whole blood, together with the indicated concentrations of ATP. Then, blood was exposed to 10 μg/ml LPS and 1 μg/ml PHA, and incubated for 24 h. The IL-6 released into the supernatants was analyzed using the ELISA method. […] Data are expressed at the mean values; error bars represent SEM.
Whole blood of healthy subjects was collected as described for Experiment 2, and pre-incubated with 1 or 10 mM H2O2 at 5% CO2 and 37° C. for 15 min. Then, ATP was added to the blood at final concentrations of 1-300 μM for the 30 min incubation step, and then incubated as in Experiment 2 with LPS/PHA for 24 hours.

[3] = test system: guinea pig alveolar macrophages; assay: Guinea pig alveolar macrophages incubated with LPS and spin-trap DMPO; assay type: cell-based
Excerpt: As mentioned above, ATP is known to enhance the oxidative burst of neutrophils and other phagocytic cells. […] In a study using guinea pig alveolar macrophages (according to (35, 36)) we confirmed the ATP dependent increase in H2O2 formation. […] This finding underlines the importance and practical relevance of the present invention that ATP attenuates of hydroxyl radical DMPO adduct formation in a more chemically oriented set-up. Our finding that the formation of the DMPO—OH adducts is inhibited by the presence of ATP, also in incubations with alveolar macrophages, is of great promise for the protective effect of ATP in diseases and conditions in which oxidative stress plays a predominant role, as discussed on the previous pages.

[4] = previous study, ATP infusion during 30 hrs; cited from earlier work
TNF-α = assay: LPS+PHA-induced TNF-α secretion in whole blood from healthy subjects (ELISA); assay type: cell-based, human
Method: FIG. 7 Effect of ATP on LPS+PHA-induced TNF-α secretion in whole blood from healthy subjects. The whole blood was exposed to 10 μg/ml LPS and 1 μg/ml PHA with indicated concentrations of ATP for 24 h. The TNF-α released into the supernatants was analyzed using the ELISA method. Results are expressed in percentage, 100% being the TNF-α release under stimulation by LPS+PHA without ATP. […] Data are expressed as the mean values; error bars represent SEM. *, different from control (stimulation by LPS+PHA without ATP) (P<0.05).
FIG. 13 Effect of different purinergic compounds on LPS+PHA-induced TNF-α secretion in whole blood. The whole blood was exposed to 10 μg/ml LPS and 1 μg/ml PHA with the indicated purinergic compounds at the concentration of 300 μM for 24 h. The TNF-α released into the supernatant was analyzed using the ELISA method. Results are expressed in percentage, 100% being the TNF-α release under stimulation by LPS+PHA without addition of a purinergic compound (control). […] The TNF-α release induced by LPS+PHA from whole blood was not inhibited by UTP, UDP or CTP. Data are expressed as the mean values; error bars represent SEM.
Blood was collected from 8 healthy subjects in heparin containing vacutainer tubes. All incubations were performed in duplicate. ATP was dissolved in RPMI 1640 culture medium, at a final concentration of 1-300 μM, and blood pre-incubated with ATP at 5% CO2 at 37 DC for 30 min. After stimulation with LPS en PHA (10 and 1 μg/ml final concentration, respectively), the plates were incubated in 5% CO2 at 37° C. for 24 h. Cell-free supernatant fluids were then collected by centrifugation (6000 rpm, 10 min at 4° C.) and stored at −20° C. until tested for presence of cytokines. All cytokines were quantified by means of PeliKine Compact human ELISA kits (CLB/Sanquin, The Netherlands), based on appropriate and validated sets of monoclonal antibodies.
Whole blood was collected and stimulated with LPS+PHA as described for Experiment 2. ATP, dissolved in RPMI 1640 culture medium, was added to the blood at a final concentration of 1-1000 μM. The agonists were added in the same way as ATP, however their stock solutions are prepared in PBS and further diluted in medium. All incubations are performed in duplicate.

Compound: Nc1ncnc2c1ncn2[C@@H]1O[C@H](COP(=O)(O)OP(=O)(O)OP(=O)(O)O)[C@@H](O)[C@H]1O [ATP, Adenosine 5′-triphosphate]
- patients spontaneously reporting beneficial effects ([1]; 8 infusions of 24 h): 8 out of 9
- patients noting these effects on the day after the first ATP infusion ([1]; human, in vivo): 5 out of 9
- body weight ([2]; phase I/II, 2 to 3 intravenous courses of 96 hours): stabilisation
- average weight gain ([2]; phase II, after 4 ATP courses): 1.3 kg
- effect on irradiation-induced decrease in GSH and GSH/GSSG ratios (GSH and GSH/GSSG ratios): attenuation
- effect on LPS+PHA-induced IL-6 release (IL-6): no effect; also recorded: not influenced
- effect on H2O2 formation [3]: increase
- effect on DMPO—OH adduct formation ([3]; macrophages incubated with LPS): inhibited
- life-threatening side effects [4]: did not find any
- effect of purinergic compound on LPS+PHA-induced TNF-α release (TNF-α; 300 μM, 24 h): greatest inhibition
- effect on inhibiting TNFα and stimulating IL-10 production (TNF-α; LPS-PHA stimulated whole blood, Experiment 4): more effective
- effect on LPS+PHA-induced TNF-α release (TNF-α; indicated ATP concentrations, 24 h): significantly inhibited
